From PMC12691742, “Anti-Cancer Outcome of Glucocorticoid Receptor Transrepression by Synephrine Derivatives in Hematological Malignancies” (International Journal of Molecular Sciences, 2025)
“Also recorded” adds a separate entry of the source.

Key:
[1] = tested on: IL1-α and IL6 mRNA expression in K562 and Granta cells; test: Q-PCR of GR transrepression marker genes; assay type: cell-based
Protocol: Figure 4 Effects of synephrine derivatives on GR transrepression in Granta lymphoma and K562 leukemia cells. (A) K562 and Granta cells stably infected with the lentiviruses bearing the NF-kB luciferase reporter. Cells were incubated for 5 h with the solvent (control), TPA (5 ng/mL), 4S-C2 (10 µM), 8S-E3 (10 µM), 10S-E2 (1 µM), or 13S-G2 (1 µM). Luciferase activity was determined as described in the Materials and Methods section. (B) IL1-α and IL6 mRNA expression in K562 and Granta cells. Q-PCR results were normalized to the expression of the housekeeping gene RPL27 and are presented as the fold change compared to the control. The mean ± SD was calculated for three individual samples/condition (n = 3). Statistically significant differences compared to the control: * p < 0.05, ** p < 0.01.
Total RNA isolation from cell cultures and murine bones, reverse transcription, and Q-PCR were performed as described in [36]. Primers were designed using NCBI Primer-BLAST https://www.ncbi.nlm.nih.gov/tools/primer-blast/, accessed on 25 August 2025 (Supplementary Table S1). Results were normalized to the expression of the housekeeping RPL27 и Rpl27 genes. The experiments were performed in triplicate.

Granta cells = test: Cell cycle analysis by PI flow cytometry in Granta cells; assay type: cell-based; settings: 24 h, 10S-E2 6.25 µM
Protocol: (§1) Figure 5 Pro-apoptotic and anti-cancer effects of synephrine derivatives in vitro and in vivo. (A) Effect of 4S-C2, 8S-E3, 10S-E2, and 13S-G2 on cell cycle progression in K562 and Granta cells after 24 h of incubation. The cells were fixed with ethanol, stained with propidium iodide, and analyzed using flow cytometry. Statistically significant difference compared to control: *—p < 0.05, **—p < 0.01 (n = 3). (B) In vivo anti-cancer activity was evaluated using the transplantable P388 murine lymphoma model. […] Tumor nodule size was measured twice a week using digital calipers. Statistically significant differences compared to the control: * p < 0.05, ** p < 0.01.
(§2) The distribution of cells by cell cycle phases was evaluated using propidium iodide (PI) staining, as described in [19]. […] After incubation, the cells were resuspended in 70% ethanol and fixed for 2h at 4 °C. Cells were then washed twice with cold PBS, pH 7.4, and stained with 500 µL of cold propidium iodide (PI) solution (50 µg/mL PI, 1% Triton X-100, and 100 µg/mL RNase A in PBS). The cell cycle distribution of cells in samples was analyzed using an FACSCalibur Flow Cytometer (“BD Biosciences”, San Jose, CA, USA). The experiments were performed in triplicate.

K562 cells = test: Cell cycle analysis by PI flow cytometry in K562 cells; assay type: cell-based; settings: 24 h, 10S-E2 6.25 µM
Protocol: as §1, §2

BALB/c female mice = test: Glucocorticoid-induced osteoporosis model: bone and skin morphometry, body weight; assay type: in vivo; settings: Dex 20 mg/kg
Text: (§3) (A) H&E bone staining and quantification of cortical bone thickness. (B) Q-PCR analysis of Rankl, Mmp9, Tsc2, Trap, and Bglap mRNA expression in bone tissue. […] (C) H&E skin staining and quantification of dermal adipose thickness (50 images per treatment group of 10 animals). Statistically significant differences compared to the control: * p < 0.05, ** p < 0.01.
(§4) The protocol for the experiment was approved by the local N.N. Blokhin National Medical Research Center Ethics Committee and corresponded to the guidelines for the welfare and use of animals in cancer research adopted by The United Kingdom Coordinating Committee on Cancer Prevention Research. […] Body weight was recorded twice a week for toxicity control.
Bone and skin samples from the GIOP experiment were fixed in formaldehyde and embedded in paraffin, and sections were stained with hematoxylin and eosin. After formaldehyde fixation, the bone samples were decalcified in decalcification buffer (0.5 M EDTA, 0.7 mM NaOH, pH7.0) for 14 days, washed twice with PBS, and further processed according to the standard histology protocol. The dermal adipose and bone thickness were quantified in sections stained with hematoxylin and eosin. At least five individual fields per slide of each sample/treatment (at least 50 images/treatment group) were analyzed using Axioplan2 microscope software (“Carl Zeiss”, Jena, Germany). The dermal adipose or bone thickness in treated animals is presented as a percentage of the control animals.

[2] = tested on: Rankl, Mmp9, Tsc2, Trap, Bglap mRNA expression in bone tissue; test: Glucocorticoid-induced osteoporosis model: Q-PCR of marker genes in bone tissue; assay type: in vivo, mice; settings: 5 weeks; Dex 20 mg/kg, 10S-E2 10 mg/kg
Protocol: as §3
Total RNA isolation from cell cultures and murine bones, reverse transcription, and Q-PCR were performed as described in [36]. […] Results were normalized to the expression of the housekeeping RPL27 и Rpl27 genes. The experiments were performed in triplicate.
as §4

[3] = i.p. every 24 h for 5 weeks, 10S-E2 10 mg/kg

CCCCCCNCC(O)c1ccc(OCc2ccccc2)cc1 (stereo not drawn) [10S-E2, 1-[4-(benzyloxy)phenyl]-2-(hexylamino)ethanol]
expression of GR TR marker genes IL1-α and IL6 [1]: downregulation | number of cells in the G1 phase (Granta cells): decrease in the number of cells in the G1 phase | induction of apoptosis (K562 cells): did not induce apoptosis | number of cells in the G1 phase (K562 cells): decrease in the number of cells in the G1 phase | number of replicating cells in the S phase (K562 cells): increased the number of replicating cells in the S phase | animal body weight vs control (BALB/c female mice; GIOP study, 10S-E2 10 mg/kg i.p. every 24 h for 5 weeks): no statisticall y si gnificant differences; also recorded: similar | loss of cortical bone thickness (BALB/c female mice; [3]): did not cause any loss | reduction of dermal adipose tissue / skin atrophy (BALB/c female mice; [3]): preserved the skin architecture | Mmp9 mRNA expression in bone tissue [2]: significantly downregulated | Rankl mRNA expression in bone tissue [2]: significantly downregulated | Trap mRNA expression in bone tissue [2]: significantly downregulated | Tsc2 mRNA expression in bone tissue [2]: significantly downregulated
